Consider 14 compounds from ChEMBL document CHEMBL5303573, “Mapping human microbiome drug metabolism by gut bacteria and their genes” (Nature, 2019).

The structures appear in SMILES notation.

Series [1] can be described thus: The drug is tested on Bacteroides fragilis strain: T(B)9 for biotransformation. The drug concentrations were measured before and after a 12-h incubation by liquid-chromatography-coupled mass spectrometry (LC–MS). The settings on record: 2 µM.
Series [2] in a line: The drug is tested on Proteus penneri strain: ATCC35198 for biotransformation. The drug concentrations were measured before and after a 12-h incubation by liquid-chromatography-coupled mass spectrometry (LC–MS). Particulars: 2 µM.
Series [3] in a line: The drug is tested on Eubacterium biforme strain: DSM3989 for biotransformation. The drug concentrations were measured before and after a 12-h incubation by liquid-chromatography-coupled mass spectrometry (LC–MS). The settings on record: holdemanella biformis, 2 µM.
For series [4] the following is noted: clostridioides difficile, 12 h, 2 µM.
Description: The drug is tested on Clostridium difficile strain: 120 for biotransformation. The drug concentrations were measured before and after a 12-h incubation by liquid-chromatography-coupled mass spectrometry (LC–MS)
The nature of series [5]: The drug is tested on Salmonella typhimurium strain: LT2 for biotransformation. The drug concentrations were measured before and after a 12-h incubation by liquid-chromatography-coupled mass spectrometry (LC–MS). Particulars: salmonella enterica subsp. enterica, 2 µM.
Series [6] in a line: The drug is tested on Providencia alcalifaciens strain: DSM30120 for biotransformation. The drug concentrations were measured before and after a 12-h incubation by liquid-chromatography-coupled mass spectrometry (LC–MS). Particulars: 2 µM.

Turning to `c1ccc([C@H]2CN3CCSC3=N2)cc1` [LEVAMISOLE], the “Bacterial Biotransformation” value is “Compound metabolized” in series [1], “Compound metabolized” in series [2], “Compound NOT metabolized” in series [3] and “Compound metabolized” in series [4].

For the compound `CCCC(=O)Nc1ccc(OCC(O)CNC(C)C)c(C(C)=O)c1` (stereo not given) [ACEBUTOLOL], the “Bacterial Biotransformation” value in series [5] and in series [4] was “Compound NOT metabolized” throughout.

For `CC(C)NCC(O)COc1ccc(CCOCC2CC2)cc1` (stereo not given) [BETAXOLOL], the “Bacterial Biotransformation” value in series [1], in series [2], in series [4] and in series [6] was “Compound NOT metabolized” in each case.

For `C=CCc1ccccc1OCC(O)CNC(C)C` (stereo not given) [ALPRENOLOL], the “Bacterial Biotransformation” value in series [5] is reported as “Compound NOT metabolized”.

In the case of `O=P1(N(CCCl)CCCl)NCCCO1` (stereo not given) [CYCLOPHOSPHAMIDE ANHYDROUS], the “Bacterial Biotransformation” value in series [1] is on record as “Compound NOT metabolized”; in series [2], “Compound NOT metabolized”; in series [5], “Compound NOT metabolized”; in series [3] it was “Compound metabolized”; in series [6], “Compound NOT metabolized”.

As for `CCOc1cc(CC(=O)N[C@@H](CC(C)C)c2ccccc2N2CCCCC2)ccc1C(=O)O` [REPAGLINIDE], in series [4], the “Bacterial Biotransformation” value is reported as “Compound NOT metabolized”.

For the compound `CN/C(=N/CCSCc1nc[nH]c1C)NC#N` [CIMETIDINE], the “Bacterial Biotransformation” value in series [1] is reported as “Compound metabolized”; in series [2], “Compound NOT metabolized”; in series [5] it was “Compound NOT metabolized”; in series [4], “Compound NOT metabolized”; in series [6], “Compound NOT metabolized”.

Take `O=C(O)COCCN1CCN(C(c2ccccc2)c2ccc(Cl)cc2)CC1` (stereo not given) [CETIRIZINE]: the “Bacterial Biotransformation” value is recorded as “Compound metabolized” in series [1]; “Compound NOT metabolized” in series [2]; “Compound metabolized” in series [5]; “Compound metabolized” in series [3]; “Compound NOT metabolized” in series [6].

`Clc1cccc(Cl)c1N=C1NCCN1` [CLONIDINE]: the “Bacterial Biotransformation” value in series [1] is “Compound metabolized”; in series [2] it was “Compound NOT metabolized”; in series [5], “Compound NOT metabolized”; in series [3] it was “Compound NOT metabolized”; in series [4], “Compound NOT metabolized”; in series [6] it was “Compound NOT metabolized”.

With `COC(=O)[C@H](c1ccccc1Cl)N1CCc2sccc2C1.O=S(=O)(O)O` [CLOPIDOGREL BISULFATE], the “Bacterial Biotransformation” value was “Compound metabolized” in series [1]; “Compound NOT metabolized” in series [2]; “Compound NOT metabolized” in series [5]; “Compound NOT metabolized” in series [3]; “Compound NOT metabolized” in series [6].

Regarding `CN1CCN(C2=Nc3cc(Cl)ccc3Nc3ccccc32)CC1` [CLOZAPINE], the “Bacterial Biotransformation” value in series [2], in series [5] and in series [3] was “Compound NOT metabolized” throughout.

On to `COc1ccccc1OCCNCC(O)COc1cccc2[nH]c3ccccc3c12` (stereo not given) [CARVEDILOL], for which the “Bacterial Biotransformation” value in series [4] is recorded as “Compound NOT metabolized”.

`CC(C)NCC(O)COc1ccc(CC(N)=O)cc1` (stereo not given) [ATENOLOL]: the “Bacterial Biotransformation” value in series [2], in series [5], in series [4] and in series [6] was “Compound NOT metabolized” each time.

`CN(C)CCC=C1c2ccccc2C=Cc2ccccc21` [CYCLOBENZAPRINE]: the “Bacterial Biotransformation” value in series [1], in series [2], in series [3] and in series [6] was “Compound NOT metabolized” each time.
